Holding throughout (type): physicochemical
Data set [1] can be described thus: logP and logD values water/octanol. As to conditions: for logD: pH 7.4, water/octanol; for logP: water/octanol.
The nature of data set [2]: logP and logD values water/cyclohexane. As to conditions: for ΔlogP value at pH 7.4: difference of logP water/octanol and water/cyclohexane; for ΔlogD value at pH 7.4: pH 7.4, difference of logD water/octanol and water/cyclohexane.
Data set [3] in a line: pKa values of the compounds 1 and 2.
Setting [4] is: pH 7.4, water/cyclohexane, read-out: logD value at pH 7.4 water/cyclohexane.
The mark [5] stands for this setting: water/cyclohexane, read-out: logP value: water/cyclohexane.

The structures appear in SMILES notation. Read-outs that look alike come from different tables or passages of the source.

In the case of `CCCC(=O)O[C@H]1CC[C@](O)(c2cccc(OC)c2)[C@@H](CN(C)C)C1` (racemic) [Compound 1, (1SR,3RS,4RS)-butyric acid 3-dimethylaminomethyl-4-hydroxy-4-(3-methoxy-phenyl)-cyclohexyl ester], in data set [1], the pH-dependent lipophilicity (logD) (in general, the decadic logarithm of the distribution of all forms, ionised or not, between an organic phase and buffer at a given pH) amounted to 1.48; the log partition coefficient (logP) (as a rule, the decadic logarithm of the partition coefficient of the neutral form, usually between octanol and water) was 2.9. Besides, in data set [2], the “ΔlogP value at pH 7.4” value is on record as 0.538 and the “ΔlogD value at pH 7.4” value is reported as 0.538. Also, the logD hydrocarbon water in data set [2] (setting [4]) came out at 0.946. In addition, the logD hydrocarbon water in data set [2] (setting [5]) turned out to be 2.36. The pKa (in general, the pH at which an ionisable group is half protonated) in data set [3] is 8.8.
Turning to `COc1cccc([C@@]2(O)CC[C@H](O)C[C@@H]2CN(C)C)c1` (racemic) [Compound 2, (1RS,2RS,4SR)-2-dimethylaminomethyl-1-(3-methoxy-phenyl)-cyclohexane-1,4-diol], in data set [1], the logD was -0.564 and the log partition coefficient (logP) was 1.1. In data set [2], the “ΔlogP value at pH 7.4” value was determined as 1.733 and the “ΔlogD value at pH 7.4” value came to 1.733. The logD hydrocarbon water in data set [2] (setting [4]) was -2.3. Also, the logD hydrocarbon water in data set [2] (setting [5]) is -0.632. In data set [3], this molecule had a pKa of 9.05.

The values are drawn from US7168937B2, “Method for the enzymatic resolution of the racemates of aminomethyl-aryl-cyclohexanol derivatives” (Gruenenthal GmbH, priority 2000, dated 2007).
